Reference: US20060276477A1, “Treatment method for anemia” (FibroGen, Inc., priority 2005, published 2006)

Tests used:
Assay type in all cases: in vivo
[1] = tested on: circulating EPO; assay: Circulating EPO levels in mice after single intravenous or oral gavage dose; conditions: 6 hours after administration; for EPO Intravenous: single intravenous dose (dose of the table not stated; 2-60 mg/kg tested); for EPO Oral Gavage: single oral gavage dose (dose of the table not stated; 2-60 mg/kg tested)
Description: (§1) Mice were administered various doses (2 mg/kg, 6 mg/kg, 20 mg/kg, 60 mg/kg) of compounds of the present invention by oral gavage or by intravenous injection. Circulating levels of EPO were determined […] hours after single-dose administration of compound. Hemoglobin levels were measured in mice on day 8 following administration of compound by oral gavage on day 1, day 3, and day 5.

[2] = tested on: hemoglobin; assay: Hemoglobin levels in mice on day 8 after oral gavage on day 1, 3 and 5; conditions: for Hemoglobin 2 mg/kg cmpd: 2 mg/kg oral gavage on day 1, 3 and 5, measured day 8; for Hemoglobin 6 mg/kg cmpd: 6 mg/kg oral gavage on day 1, 3 and 5, measured day 8; for Hemoglobin 20 mg/kg cmpd: 20 mg/kg oral gavage on day 1, 3 and 5, measured day 8; for Hemoglobin 60 mg/kg cmpd: 60 mg/kg oral gavage on day 1, 3 and 5, measured day 8
Description: as §1

[3] = tested on: circulating EPO; assay: Peak circulating (serum) EPO levels in normal monkeys after a single dose; conditions: 8-12 hours after administration
[4] = Circulating EPO (Cmax, AUC) after i.v. or s.c. administration of rhEPO to human subjects; conditions: assumes basal endogenous EPO of ~10 mIU/ml
From the text: (§2) Increases in circulating EPO levels following administration of compound A or of rhEPO were compared. Table 3 and Table 2 below show Cmax EPO and EPO Area Under the Curve (AUC) values following intravenous (i.v.) or subcutaneous (s.c.) administration of various doses of rhEPO to human subjects, respectively. […] (See Table 1 below.)

[5] = tested on: circulating EPO; assay: Circulating EPO levels in mice after oral gavage of compound A
Description: Mice were administered various doses (0, 20, 30, 60 mg/kg) of compound A by oral gavage. Circulating levels of EPO were determined 6 hours after compound administration. […] Administration of 20 mg/kg of compound A increased circulating levels of EPO approximately two-fold.

[6] = tested on: hematocrit; assay: Hematocrit in rats after intermittent dosing for 4 weeks
Description: Male (diamonds in FIG. 2) and female (triangles in FIG. 2) rats were administered various doses (20, 60, 150, 200, 300 mg/kg) of compound A two times per week (e.g., intermittent dosing) for 4 weeks. Hematocrit was determined on day 32.

[7] = tested on: serum EPO; assay: Serum EPO levels in healthy human subjects after compound administration; parameters: EPO AUC (0-24 hours): unit not given beside the values
Description: […] At the indicated times (hours) after compound administration, serum EPO levels were determined.
as §2

[8] = tested on: circulating EPO; assay: Circulating EPO levels in bilateral nephrectomized and sham-operated mice
Description: Mice underwent bilateral nephrectomy (BN) surgery (or were sham-operated). Two hours after BN surgery, mice were administered a single oral dose (30 mg/kg) of compound A. Circulating EPO levels were measured 6 hours after compound administration. […] The kidneys produce the majority of endogenous EPO.

[9] = tested on: hemoglobin; assay: Hemoglobin levels in anemic pre-dialysis human subjects with chronic kidney disease; conditions: for Mean change from Baseline Hb Day 42 (or last value carried forward): oral three-times per week for 4 weeks
Description: The effects of compound of the present invention on erythropoiesis in anemic pre-dialysis subjects with advanced stage chronic kidney disease were determined. Study subjects had chronic kidney disease and anemia, having GFR<30 ml/min and Hb<10g/dL. Two anemic pre-dialysis subject populations with chronic kidney disease (CKD) were studied: (1) subjects with no previous exposure to rhEPO (i.e., rhEPO-naive) and (2) subjects who had been receiving continuous rhEPO therapy for at least 8 weeks. In rhEPO-treated subjects, rhEPO administration was discontinued 5-14 days prior to initiation of treatment with compound of the present invention Subjects were orally administered compound A three-times per week for 4 weeks. Erythropoiesis was measured by changes in hemoglobin levels and serum EPO concentrations.

Cc1nc(C(=O)NCC(=O)O)c(O)c2cccc(Oc3ccccc3)c12 [Compound E, [(4-Hydroxy-1-methyl-8-phenoxy-isoquinoline-3-carbonyl)-amino]-acetic acid]
EPO Intravenous [1]: 2976 mIU/ml
EPO Oral Gavage [1]: 744 mIU/ml
Hemoglobin 2 mg/kg cmpd [2]: 12.23 g/dL
Hemoglobin 6 mg/kg cmpd [2]: 13.29 g/dL
Hemoglobin 20 mg/kg cmpd [2]: 13.41 g/dL
Hemoglobin 60 mg/kg cmpd [2]: 15.9 g/dL

Cc1nc(C(=O)NCC(=O)O)c(O)c2ccc(Cl)cc12 [Compound F, [(7-Chloro-4-hydroxy-1-methyl-isoquinoline-3-carbonyl)-amino]-acetic acid]
EPO Intravenous [1]: 3967 mIU/ml
Hemoglobin 6 mg/kg cmpd [2]: 13.66 g/dL
Hemoglobin 20 mg/kg cmpd [2]: 14.15 g/dL
Hemoglobin 60 mg/kg cmpd [2]: 17.74 g/dL

Cc1nc(C(=O)NCC(=O)O)c(O)c2ccc(Oc3ccccc3)cc12 [Compound B, [(4-Hydroxy-1-methyl-7-phenoxy-isoquinoline-3-carbonyl)-amino]-acetic acid]
Peak EPO ([3]; single dose 3 mg/kg, pre-dose 4.2): 13.1
Peak EPO ([3]; single dose 30 mg/kg, pre-dose 0): 1534.0
Peak EPO ([3]; single dose 60 mg/kg, pre-dose 1.2): 2739.8

Cc1nc(C(=O)NCC(=O)O)c(O)c2cccc(Oc3ccc(F)cc3)c12 [Compound G, {[8-(4-Fluoro-phenoxy)-4-hydroxy-1-methyl-isoquinoline-3-carbonyl]-amino}-acetic acid]
EPO Intravenous [1]: 10969 mIU/ml
EPO Oral Gavage [1]: 2546 mIU/ml
Hemoglobin 2 mg/kg cmpd [2]: 14.39 g/dL
Hemoglobin 6 mg/kg cmpd [2]: 13.13 g/dL
Hemoglobin 20 mg/kg cmpd [2]: 14.85 g/dL
Hemoglobin 60 mg/kg cmpd [2]: 17.7 g/dL

rhEPO: recombinant human erythropoietin (rhEPO), an erythropoiesis stimulating protein; current therapy for anemia
Cmax EPO ([4]; rhEPO 10 U/kg i.v.): 181 mIU/ml
Cmax EPO ([4]; rhEPO 50 U/kg i.v.): 1,430 mIU/ml
Cmax EPO ([4]; rhEPO 150 U/kg i.v.): 4,438 mIU/ml
Cmax EPO ([4]; rhEPO 300 U/kg s.c.): 429 mIU/ml
Cmax EPO ([4]; rhEPO 450 U/kg s.c.): 1,263 mIU/ml
Cmax EPO ([4]; rhEPO 500 U/kg i.v.): 16,257 mIU/ml
Cmax EPO ([4]; rhEPO 600 U/kg s.c.): 1,263 mIU/ml

O=C(O)CNC(=O)c1nc(Cl)c2ccccc2c1O [Compound A, [(1-Chloro-4-hydroxy-isoquinoline-3-carbonyl)-amino]-acetic acid]
circulating levels of EPO ([5]; oral gavage 0, 20, 30, 60 mg/kg, 6 hours after administration (FIG. 1)): increased EPO levels in mice in a dose-dependent manner
increase of circulating levels of EPO ([5]; oral gavage 20 mg/kg, 6 hours after administration): approximately two-fold
hematocrit ([6]; male and female rats, 20, 60, 150, 200, 300 mg/kg two times per week for 4 weeks, day 32 (FIG. 2)): increased hematocrit in rats in a dose-dependent manner
erythropoiesis, as determined by hematocrit ([6]; rats, 20 mg/kg two times per week for 4 weeks, day 32): clinically-significant increase in erythropoiesis
serum EPO levels ([7]; healthy human subjects, 3, 6, 10, 15, 20 mg/kg oral (FIG. 3)): increased serum EPO levels in a dose-dependent manner
EPO AUC (0-24 hours) ([7]; human subjects, PHI dose 6 mg/kg): 203.5
EPO AUC (0-24 hours) ([7]; human subjects, PHI dose 10 mg/kg): 331
EPO AUC (0-24 hours) ([7]; human subjects, PHI dose 20 mg/kg): 365.5
EPO AUC (0-24 hours) ([7]; human subjects, PHI dose 30 mg/kg): 508
circulating EPO levels compared with rhEPO administration ([7]; human subjects, therapeutically effective doses of compound A versus rhEPO): substantially lower circulating EPO levels
Peak EPO ([3]; single dose 13 mg/kg, pre-dose 2.1): 3.6
Peak EPO ([3]; single dose 30 mg/kg, pre-dose 0.6): 2.9
Peak EPO ([3]; single dose 40 mg/kg, pre-dose 0.8): 32.3
Peak EPO ([3]; single dose 50 mg/kg, pre-dose 0): 21.4
Peak EPO ([3]; single dose 60 mg/kg, pre-dose 0): 1194.2
circulating EPO levels ([8]; bilateral nephrectomized (BN) mice, single oral dose 30 mg/kg two hours after surgery, 6 hours after administration (FIG. 4B)): significant increase in EPO levels
circulating EPO levels ([8]; sham-operated mice, single oral dose 30 mg/kg, 6 hours after administration (FIG. 4A)): an increase in circulating levels of EPO
decrease from mean Hb baseline levels ([9]; CKD subjects after cessation of rhEPO therapy, placebo 1.5 g/dL decrease): 0.9 g/dL
Mean change from Baseline Hb Day 42 (or last value carried forward) ([9]; CKD subjects previously on rhEPO (discontinued 5-14 days before), mean baseline Hb 11.7 g/dL, placebo −1.5): -0.9 g/dL
hemoglobin levels versus placebo ([9]; rhEPO-naive CKD subjects, oral three-times per week for 4 weeks (FIG. 5)): hemoglobin levels were higher
Mean change from Baseline Hb Day 42 (or last value carried forward) ([9]; rhEPO-naive CKD subjects, mean baseline Hb 9.6 g/dL, placebo −0.35, p = 0.036): 1.9 g/dL
EPO Intravenous [1]: 1309 mIU/ml
Hemoglobin 6 mg/kg cmpd [2]: 12.86 g/dL
Hemoglobin 20 mg/kg cmpd [2]: 12.92 g/dL
Hemoglobin 60 mg/kg cmpd [2]: 13.47 g/dL

COc1ccc(Oc2ccc3c(O)c(C(=O)NCC(=O)O)ncc3c2)cc1 [Compound C, {[4-Hydroxy-7-(4-methoxy-phenoxy)-isoquinoline-3-carbonyl]-amino}-acetic acid]
EPO Intravenous [1]: 1663 mIU/ml
Hemoglobin 6 mg/kg cmpd [2]: 13.68 g/dL
Hemoglobin 20 mg/kg cmpd [2]: 14.29 g/dL
Hemoglobin 60 mg/kg cmpd [2]: 14.94 g/dL

N#Cc1nc(C(=O)NCC(=O)O)c(O)c2sccc12 [Compound H, [(4-cyano-7-hydroxy-thieno[3,2-c]pyridine-6-carbonyl)-amino]-acetic acid]
EPO Intravenous [1]: 1242 mIU/ml
EPO Oral Gavage [1]: 608 mIU/ml
Hemoglobin 2 mg/kg cmpd [2]: 12.67 g/dL
Hemoglobin 6 mg/kg cmpd [2]: 13.65 g/dL
Hemoglobin 20 mg/kg cmpd [2]: 13.53 g/dL
Hemoglobin 60 mg/kg cmpd [2]: 14.2 g/dL

O=C(O)CNC(=O)c1ncc2c(Oc3ccccc3)cccc2c1O [Compound D, [(4-Hydroxy-8-phenoxy-isoquinoline-3-carbonyl)-amino]-acetic acid]
EPO Intravenous [1]: 5473 mIU/ml
EPO Oral Gavage [1]: 1201 mIU/ml
Hemoglobin 2 mg/kg cmpd [2]: 14.1 g/dL
Hemoglobin 6 mg/kg cmpd [2]: 13.98 g/dL
Hemoglobin 20 mg/kg cmpd [2]: 14.55q g/dL
